“And” between values parts separate entries of the source, which are not always exact repeats. Identical values can stand only once. Like-named read-outs stand apart in the source and are kept apart here.
Tests used:
Assay type in all cases: cell-based
MDA-MB-231 cells [1] = assay: Measurement of lipid (BODIPY-C11) and cytosolic (DCFH-DA) ROS; details: 12 h; suppressed by Fer-1 (10 μM)
Method: Lipid ROS was analyzed by flow cytometry: cells were plated at a density of 2 × 10^5 cells/well in 6-well plates. After treatment as indicated, cells were stained with 5 μM BODIPY-C11 dye (diluted in serum-containing DMEM) for 30 min at 37 °C in an incubator. For cytosolic ROS, cells were stained with 10 μM DCF (diluted in serum-free DMEM). Following staining, cells were pelleted and resuspended in 1 mL of PBS. Fluorescence intensity was measured by the analytical flow cytometry (CytoFLEX, […], US). A minimum of 10,000 cells were analyzed for each condition. Data analysis was performed using the FlowJo 7.6.1 software. The starting cell population gating by Forward Scatter and Side Scatter was used to make sure doublet exclusion. Only single cell was used for analysis.

MDA-MB-231 cells [2] = assay: Cell death manner assay (MTT, co-incubation with cell death inhibitors)
Method: [The source words this procedure for another cell line and reports this cell line under the same test.] To investigate the mechanism of 15ai in cancer cell proliferation inhibition, the manners of cell death were analyzed. The cell apoptosis inhibitor Z-VAD-FMK (Z-VAD), cell necrosis inhibitor Necrostatin-1 (Necro-1), ferroptosis inhibitor Ferrostatin-1 (Fer-1), and ROS inhibitor N-acetylcysteine (NAC) were purchased and stored at −20 °C. A375 cells were seeded with a density of 5000 cells/100 µL/well into 96 well plates. After 12 h, 15ai was added at different concentrations. Following that 10 µM Z-VAD, 10 µM Nerco-1, 10 µM Fer-1, and 5 mM NAC were added and co-incubated with 15ai, respectively, for 72 h. Then, 20 µL MTT solution (5 mg/mL) was added and incubated at 37 °C for an additional 4 h. Then, the supernatant was discarded, and 200 μL DMSO was added to dissolve the precipitate. After 15 min, the absorbance (OD490) was read on a microplate reader (SpectraMax i3x, Austria). In all experiments, three replicate wells were used for each drug concentration. Each assay was performed at least three times.

cancer cell lines = assay: In vitro cancer cell assays (antiproliferation, cell line not given); details: improvement over vellosimine (4)
Method: (§1) All cell lines were cultured at 37 °C with 5% CO2 in a humidified incubator. HeLa cells were grown in MEM (Gibco) supplemented with 10% fetal bovine serum (FBS, Hyclone) and 1% penicillin/streptomycin (Gibco). MIA PaCa-2, MDA-MB-231, A549, MCF-7, A375 and BEAS-2B cells were grown in DMEM (Gibco) supplemented with 10% FBS and 1% penicillin/streptomycin. CT26, and HCT116 cells were grown in RPMI-1640 supplemented with 10% FBS and 1% penicillin/streptomycin. All cell lines were purchased from the National Collection of Authenticated Cell Cultures (China).
(§2) The antiproliferative activities of the prepared compounds against tested cell lines were evaluated using a standard (MTT)-based colorimetric assay. Cells were plated at a density of 3000 cells/well in 96-well plates and allowed to adhere overnight. Then cells were treated with varying concentrations of synthesized compounds for 72 h. At the end of treatment, 20 μL of thiazolyl blue tetrazolium bromide (MTT) solution (5 mg/mL) was added to each well. Cells were incubated for an additional 4 h at 37 °C and then the medium was removed and replaced with 200 μL of DMSO. The absorbance (OD490) was read on a microplate reader (SpectraMax i3x, Molecular Devices, US). In all experiments, three replicate wells were used for each drug concentration. Each assay was performed at least three times. The IC50 values were calculated by GraphPad Prism 9, which were the mean values derived from three independent experiments.

GPX4 = assay: Western blotting, GPX4 protein expression; details: 15ai 0, 2, 4 and 8 μM, 24 h
Method: Cells on 6-well plates were rinsed twice with cold PBS and lysed in RIPA lysis buffer (50 mM Tris (pH 7.4), 150 mM NaCl, 1% Triton X-100, 1% deoxycholicphenyl methylsulfonyl fluoride, 5.0 mM sodium pyrophosphate, […] leupeptin, 0.1 mM phenylmethylsulfonyl fluoride, and1 mM DTT) containing a protease inhibitor (PMSF) mixture at 1:100 dilution on ice for 30 min. The insoluble components of cell lysates were removed by centrifugation (4 °C, 12000 × g, 10 min), and protein concentrations were measured using a Pierce BCA protein assay kit. Proteins were separated by sodium dodecyl sulfate-polyacrylamide gel electrophoresis (SDS-PAGE) and transferred onto polyvinylidene difluoride (PVDF) membranes. Membranes were blocked using 5% skim milk in TBST and then incubated with diluted indicated primary antibodies: anti-GPX4 (1:1000 dilution, Proteintech, Cat No: 30388-1-AP), anti-SLC7A11 (1:1000 dilution, ABclonal, Cat No: A13685), anti-GAPDH (1:1000 dilution, Wanlei, Cat No: WL01114) at 4 °C with gentle shaking overnight. After washing five times (5 min each) with TBST, membranes were incubated with the HRP conjugated goat anti rabbit IgG (H + L) (1:5000 dilution, Wanlei, Cat No: WLA023) for 1 h at rt. Immunoreactive bands were visualized using an ECL detection kit (Wanlei, Cat No: WLA006) following the manufacturer’s instruction on the ChemiDoc system (BioRad, Shanghai, China).

A549 = assay: MTT cell viability assay, A549
Method: as §1, §2

[3] = MTT cytotoxicity towards normal cells, BEAS-2B; details: human
Method: as §1, §2

Hela = assay: MTT cell viability assay, Hela
Method: as §1, §2

For `C=C=C1CN2[C@H]3C[C@H]1[C@H](C=O)[C@@H]2Cc1c3n(S(=O)(=O)c2ccc(C)cc2)c2ccc(Cl)cc12` [Compound 15ai], the “lipid ROS and cytosolic ROS accumulation” value (MDA-MB-231 cells [1]) was “induce lipid ROS and cytosolic ROS accumulation significantly”, the viability at 10 µM (MDA-MB-231 cells [2]; Homo sapiens, MDA-MB-231, 72 h, read-out: Percentage of viability, Fer-1 / NAC experiment, 15ai 10 μM, Fer-1 10 μM, NAC 5 mM, 72 h, single replicates) was 21.2% and the “reversal of 15ai-induced cell death by Z-VAD or Necro-1” value (MDA-MB-231 cells [2]; MDA-MB-231 cells, addition of apoptosis inhibitor Z-VAD-FMK or necroptosis inhibitor necrostatin-1) was “could not reverse cell death”. For the same molecule, the “rescue of cell viability by Fer-1 or NAC” value (MDA-MB-231 cells [2]; co-existence of ferroptosis inhibitor Fer-1 or ROS inhibitor NAC) was “remarkably rescued cell viability”, the “anticancer activity compared to vellosimine (4)” value (cancer cell lines) was “tenfold-improved” and the “protein level of GPX4” value (GPX4) was “did not affect the protein level of GPX4”. The IC50 (A549; Homo sapiens, A549, 72 h, MTT, 72 h, mean of at least three independent experiments, read-out: IC50 A549) was 13 µM, the IC50 (A549; Homo sapiens, A549, source data sheet, single values of three experiments, read-out: MTT IC50 A549) was 14.6 µM and the IC50 (A549; source data sheet, single values of three experiments, read-out: MTT IC50 A549) was 12.5 µM and 11.8 µM. It also gave an IC50 at 72 h ([3]; BEAS-2B lung epithelial cells (normal cells), source data sheet, single values of three experiments) of over 100 µM, a CC50 at 72 h ([3]; BEAS-2B lung epithelial cells, MTT, 72 h, cytotoxicity towards normal cells, mean of at least three independent experiments) of over 100 µM and an IC50 (Hela; Homo sapiens, HeLa, 72 h, MTT, 72 h, mean of at least three independent experiments, read-out: IC50 Hela) of 2.95 µM. The IC50 (Hela; Homo sapiens, HeLa, source data sheet, single values of three experiments, read-out: MTT IC50 Hela) was 3.02 µM and the IC50 (Hela; source data sheet, single values of three experiments, read-out: MTT IC50 Hela) was 2.02 µM and 3.81 µM.
